Test results taken from patent US20090220996A1, “In vitro Assay Methods for Classifying Embryotoxicity of Compounds” (RELIANCE LIFE SCIENCES PVT LTD., priority 2007, published 2009).
In brackets after ≈: the same amount, converted by molar mass. Where two headings read alike, the source gives them in different places.

Columns and labels:
[1] = test system: human embryoid bodies (hEB); test: Cytotoxicity in human embryoid bodies, day 15 (MTT / CyQUANT); settings: for IC50: Homo sapiens
Procedure: In general, the presently disclosed embryotoxicity testing protocols comprise the following sequence of steps. Studies using embryoid bodies generally comprise: a) preparation of various concentrations of test solutions in culture medium or a desired solvent; b) preparation of a cell suspension by enzymatic digestion of human embryonic stem cell colonies; c) culturing the cell suspension for formation of embryoid bodies in the presence and absence of one or more test solutions, and incubation for several days (e.g., three days) in hanging drops; d) cultivation of the embryoid bodies in bacteriological petri dishes for several days (e.g., two days) under controlled conditions; e) transfer of the embryoid bodies into 96 well plates and incubation for several days (e.g., 10 days) in the presence of one or more test solutions; and f) detection of the viability of the embryoid bodies after 15 days by MTT assay, or fluorescent or luminescent method, and isolation of RNA for studying gene expression. Studies using human foreskin fibroblasts (HFF) generally comprise: a) preparation of various concentrations of test solutions in culture medium or a desired solvent; b) plating of HFF cells in 96 well plates in the presence or absence of one or more test solutions for 15 days, changing the media and test solutions every 2 days; and c) detection of the viability of HFF after 15 days by MTT assay, or fluorescent or luminescent method. Studies using human embryonic stem cells generally comprise: a) preparation of various concentrations of test solutions in culture medium or a desired solvent; b) preparation of hES colonies by manual passage in the presence and absence of one or more test solutions, and incubation for 15 days on matrigel coated plates changing the media and test solutions every 2 days; c) disruption of the colonies after 15 days with enzymes to form single cells; d) labeling of single cells with a fluorescently-labeled dye, such as propidium iodide (“PI”); and e) detection of the percentage viability with FACS as a measure of cytotoxicity.
The culturing of the cell suspension is done by dispensing about ¼ of the cell suspension along with test chemicals on the inner side of a 100 mm bacteriological petri dish. Around 50-80 drops are dispensed for each concentration, the untreated control, and the solvent control. The lid is turned carefully into its regular position and is put on top of a petri dish containing 5 ml of phosphate buffered saline (“PBS”). The “hanging drops” are incubated for three days in a humidified atmosphere with 5% CO2 at 37° C.
On day 3, 5 ml of freshly prepared test solution is added to the lid of the “hanging drops” petri dish. The embryoid bodies are carefully transferred from the lid of the “hanging drops” petri dish to a 60 mm bacteriological petri dish. The suspension is cultivated for two days in a humidified atmosphere with 5% CO2 at 37° C.
On the 5th day, the EBs are transferred into 96 well plates by placing 10 EBs in each well. About 150 μl of freshly prepared test solution is added to each well, and three wells are used for each concentration. The 96 well plates are incubated for […] in a humidified atmosphere with 5% CO2 at 37° C. The remaining EBs are plated on a 24 well plate coated with 0.2% gelatin and allowed to differentiate. Media was replaced every second day until day 15.
On the 15th day, an MTT assay is performed. MTT solution (5 mg/ml) is prepared in culture medium containing test chemical. The MTT solution is added to all wells and incubated at 37° C. in a humidified atmosphere of 5% CO2 for 4 hours, after which the MTT desorb solution (acidified isopropanol) is added to each well. The plate is shaken on a micrometer plate for 15 minutes to dissolve the formazan. The absorbance is measured at 550-570 nm in a microtiter plate reader using 630 nm as a reference wavelength.

[2] = test system: human embryoid bodies (hEBs); test: Morphological evaluation of embryoid bodies (photomicrographs); assay type: cell-based; settings: for morphology of treated hEBs compared to controls: day 7, 10 μg/ml (FIG. 4E-c, 4F-c); for concentration required to elicit a similar morphological response (loss of compactness, decreased EB size): day 7 hEBs, FIG. 4A-4D
Procedure: Hanging drops were made in hES media with LIF and bFGF for calculating IC50-hES cells, and in hES media without LIF and bFGF (hEB media) for the formation of EBs. On day 3 the hES colonies were collected along with the respective test compound concentration, whereas the hEBs were collected and transferred to 60 mm bacteriological petri plates for another 2 days. Morphology of the EBs was monitored under the microscope for the formation of EBs. On day 5 the hEBs were plated in a 96 well plate for MTT, as well as on a 6 well plate for RNA extraction. The media along with the appropriate test compound concentration was replaced in the 96 well and 6 well plates on days 7, 9, 11, and 13. On day 15, MTT was performed on the hES plate and the differentiated EBs. RNA was extracted from all the concentrations of 5-fluorouracil, and 1 μg of RNA was converted to cDNA to perform RT-PCR, real time PCR, or TLDA.

Row | SMILES | IC50 ([1]; 360 h, read-out: IC50-hEB) | IC50 ([1]; read-out: IC50-hEBs) | morphology of treated hEBs compared to controls [2] | concentration required to elicit a similar morphological response (loss of compactness, decreased EB size) [2] | other results
1 | O=c1[nH]cc(F)c(=O)[nH]1 [5-Fluorouracil, 5-fluorouracil] | 0.00114 mg/L (≈ 0.00873 µM) | – | – | – | survival of hEBs until day 15 ([1]; 1 μg/ml (highest dose)): did not survive until day 15; effect on cell viability ([1]; hEBs, 0.01 μg/ml, FIG. 3A): significant effect; survival percentage ([1]; hEBs, 1 μg/ml, day 15, FIG. 3A): 7%; morphology of 5 day old EBs compared to control ([2]; 1 μg/ml, day 5, FIG. 2A): significant change in the morphology
2 | CS(=O)(=O)OCCCCOS(C)(=O)=O [Busulfan, busulfan] | 0.38 ± 0.03 mg/L (≈ 1.54 µM) | 0.38 mg/L (≈ 1.54 µM) | loss of compactness and a decrease in the size of the EBs | – | cell survival ([1]; hEBs, 1 μg/ml, CyQUANT, FIG. 4E): 30%
3 | Cn1c(=O)c2c(ncn2C)n(C)c1=O [Caffeine, caffeine] | 81.6 ± 5.4 mg/L (≈ 420 µM) | 81.6 mg/L (≈ 420 µM) | – | – | survival ([1]; hEBs, 500 μg/ml, FIG. 3B): about 10%; morphology of 5 day old EBs ([2]; increasing dose (50 and 500 μg/ml), day 5, FIG. 2B): significant darkening of the cells
4 | NC(=O)NO [Hydroxyurea, hydroxyurea] | 2.33 ± 0.2 mg/L (≈ 30.6 µM) | 2.3 mg/L (≈ 30.2 µM) | loss of compactness and a decrease in the size of the EBs | – | –
5 | COc1ccc2c(c1)c(CC(=O)O)c(C)n2C(=O)c1ccc(Cl)cc1 [Indomethacin, indomethacin] | 4.49 ± 0.84 mg/L (≈ 12.5 µM) | 4.49 mg/L (≈ 12.5 µM) | – | 100 μg/ml | –
6 | CC1(C)S[C@@H]2[C@H](NC(=O)Cc3ccccc3)C(=O)N2[C@H]1C(=O)O [Penicillin G, penicillin G] | – | – | – | 5000 μg/ml | cytotoxic effects in hEBs compared to hES cells and HFF ([1]; 1000 μg/ml, FIG. 3C): more cytotoxic effects; IC50-hEBs ([1]; Table 5): 1300 mg/L (≈ 3890 µM); cell survival ([1]; hEBs, 1000 μg/ml, CyQUANT, FIG. 4A/4B): about 60%; cell survival ([1]; hEBs, 5000 μg/ml (highest dose), FIG. 3C): 30%; morphology of 5 day old EBs ([2]; 5000 μg/ml (highest dose), day 5, FIG. 2C): non-significant darkening; morphology of 5 day old EBs ([2]; up to 1000 μg/ml, day 5, FIG. 2C): no significant change
